Target: T1, Glu-plg (Homo sapiens, UniProt P00747)
T1 construct: 0.1 mM VLK-pNA, 50 nM Glu-plg and 50 U/ml u-PA
Assay: Plasminogen (plg) activation enhancing activity by urokinase catalysis, VLK-pNA chromogenic assay (Example 30, Table 24)
Assay type: biochemical
Settings: for Maximum enhancing activity: Concentration by mole / Maximum enhancing activity: Concentration by weight: concentration at which enhancement of plasminogen activation reaches the maximum; for 10-Fold enhancing activity: Concentration by mole / 10-Fold enhancing activity: Concentration by weight: concentration giving 10-fold enhancement of plasminogen activation vs control without SMTP compound (=1); for 10-Fold enhancing activity: Concentration by mole / 10-Fold enhancing activity: Concentration by weight / plasminogen activation enhancing activity compared to orniplabin: 0.1 mM VLK-pNA, 50 nM Glu-plg, 50 U/ml u-PA, 37° C.; for Maximum enhancing activity: Multiplication factor: fold enhancement of plasminogen activation at maximum, control without SMTP compound = 1
Method: For the various triprenyl phenol compounds obtained as described above, the performance was evaluated with regard to the thrombolytic activity as the activity of promoting the plasminogen (plg) activation by urokinase catalysis.
The property of plasmin of cutting the peptide bond of a synthetic chromogenic substrate VLK-pNA (Val-Leu-Lys-p-nitroanilide) to generate p-nitroaniline (pNA), was used to measure the yellow coloration of pNA which is absorbed at 405 nm, and thereby the plasminogen activation enhancing activity of a sample is measured. An MTP-500 type microplate reader (Corona Electric Co., Ltd.) was employed as the measuring device, and measurement was performed with a 96-well round bottom microplate.
The measurement was performed under the conditions of kinetic measurement at 37° C. with dual wavelength of 405 nm (activity) to 595 nm (background), for 60 times in every minute.
The purified samples were each made into a DMSO solution or an aqueous solution of sodium salt. This solution was diluted with TBS/T (50 mM Tris-HCl, 100 mM NaCl and 0.01% Tween80, pH 7.4) to provide a sample for measurement.
Furthermore, as a blank, a reaction was performed using a reaction liquid not containing u-PA, and the value obtained therefrom was subtracted from the values obtained from the reactions described above. The absorbance was plotted against the square of time, and the slope was defined as the initial rate of reaction. A reaction solution not added with any triprenyl phenol compound was taken as the control and was compared with the samples, to determine the degree of activity of the respective compounds.
The term “concentration of 10-fold enhancing activity” indicates the concentration at which 10-fold enhancing activity is obtained in the case where the value obtained by using a reaction solution not containing any SMTP compound (control) is taken as 1. The term “maximum enhancing activity” indicates the concentration at which the enhancement of plasminogen activation by an SMTP compound reaches the maximum.

T1 sequence (P00747 20-810 limits assumed): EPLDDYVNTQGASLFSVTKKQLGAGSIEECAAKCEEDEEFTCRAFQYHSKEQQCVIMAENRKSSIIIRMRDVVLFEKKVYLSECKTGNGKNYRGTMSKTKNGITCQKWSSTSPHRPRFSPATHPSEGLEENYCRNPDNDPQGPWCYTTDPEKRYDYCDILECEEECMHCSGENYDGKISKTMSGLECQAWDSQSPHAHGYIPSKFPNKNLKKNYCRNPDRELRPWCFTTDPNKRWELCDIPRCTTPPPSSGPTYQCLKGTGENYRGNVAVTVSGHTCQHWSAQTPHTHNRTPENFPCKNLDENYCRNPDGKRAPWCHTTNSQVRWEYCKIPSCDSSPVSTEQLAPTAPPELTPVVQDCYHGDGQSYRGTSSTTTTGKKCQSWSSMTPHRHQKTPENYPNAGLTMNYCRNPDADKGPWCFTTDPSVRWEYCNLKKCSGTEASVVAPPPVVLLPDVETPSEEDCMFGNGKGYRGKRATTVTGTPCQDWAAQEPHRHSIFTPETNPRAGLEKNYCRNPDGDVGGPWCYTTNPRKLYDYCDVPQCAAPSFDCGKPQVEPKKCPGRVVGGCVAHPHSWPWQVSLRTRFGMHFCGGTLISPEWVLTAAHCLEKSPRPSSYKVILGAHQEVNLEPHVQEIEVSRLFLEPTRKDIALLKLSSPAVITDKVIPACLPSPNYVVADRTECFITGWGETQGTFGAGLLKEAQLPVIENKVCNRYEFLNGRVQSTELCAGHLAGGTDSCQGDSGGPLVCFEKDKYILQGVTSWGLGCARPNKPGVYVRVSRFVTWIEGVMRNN

Row | SMILES | Maximum enhancing activity: Concentration by mole [µM] | Maximum enhancing activity: Concentration by weight [µg/mL] | 10-Fold enhancing activity: Concentration by mole [μM] | 10-Fold enhancing activity: Concentration by weight [μg/ml] | Maximum enhancing activity: Multiplication factor | plasminogen activation enhancing activity compared to orniplabin
1 | CC(C)=CCC/C(C)=C/CC[C@]1(C)Oc2c(c(O)cc3c2CN(c2ccc(C(=O)O)cc2)C3=O)C[C@@H]1O [Compound I-2] | 160 | 81 | 83 | 42 | 126 | equivalent or higher
2 | CC(C)=CCC/C(C)=C/CC[C@]1(C)Oc2c(c(O)cc3c2CN(c2cccc(C(=O)O)c2)C3=O)C[C@@H]1O [Compound I-3] | 300 | 151 | 202 | 102 | 52 | –
3 | CC(C)=CCC/C(C)=C/CC[C@]1(C)Oc2c(c(O)cc3c2CN(c2ccccc2C(=O)O)C3=O)C[C@@H]1O [Compound I-4] | 200 | 101 | 133 | 67 | 51 | –
4 | CC(C)=CCC/C(C)=C/CC[C@]1(C)Oc2c(c(O)cc3c2CN(c2ccc(C(=O)O)c(O)c2)C3=O)C[C@@H]1O [Compound I-5] | 200 | 101 | 100 | 52 | 158 | equivalent or higher
5 | CC(C)=CCC/C(C)=C/CC[C@]1(C)Oc2c(c(O)cc3c2CN(c2ccc(C(=O)O)cc2O)C3=O)C[C@@H]1O [Compound I-6] | 290 | 151 | 131 | 68 | 65 | –
6 | CC(C)=CCC/C(C)=C/CC[C@]1(C)Oc2c(c(O)cc3c2CN(c2c(O)cccc2C(=O)O)C3=O)C[C@@H]1O [Compound I-7] | 290 | 151 | 173 | 90 | 37 | –
7 | CC(C)=CCC/C(C)=C/CC[C@]1(C)Oc2c(c(O)cc3c2CN(c2cccc(C(=O)O)c2O)C3=O)C[C@@H]1O [Compound I-8] | 100 | 52 | 71 | 37 | 91 | equivalent or higher
8 | CC(C)=CCC/C(C)=C/CC[C@]1(C)Oc2c(c(O)cc3c2CN(c2ccc(O)c(C(=O)O)c2)C3=O)C[C@@H]1O [Compound I-9] | 120 | 63 | – | – | 8 | –
9 | CC(C)=CCC/C(C)=C/CC[C@]1(C)Oc2c(c(O)cc3c2CN(c2cc(C(=O)O)ccc2O)C3=O)C[C@@H]1O [Compound I-10] | 290 | 151 | 188 | 98 | 43 | –
10 | CC(C)=CCC/C(C)=C/CC[C@]1(C)Oc2c(c(O)cc3c2CN(c2ccc(O)cc2C(=O)O)C3=O)C[C@@H]1O [Compound I-11] | 200 | 101 | 127 | 66 | 65 | –
11 | CC(C)=CCC/C(C)=C/CC[C@]1(C)Oc2c(c(O)cc3c2CN(c2ccc(S(=O)(=O)O)cc2)C3=O)C[C@@H]1O [Compound I-19] | 300 | 163 | 137 | 74 | 60 | –
12 | CC(C)=CCC/C(C)=C/CC[C@]1(C)Oc2c(c(O)cc3c2CN([C@H](C(=O)O)c2ccccc2)C3=O)C[C@@H]1O [Compound I-20] | 289 | 150 | 89 | 46 | 402 | equivalent or higher
13 | CC(C)=CCC/C(C)=C/CC[C@]1(C)Oc2c(c(O)cc3c2CN([C@@H](C(=O)O)c2ccccc2)C3=O)C[C@@H]1O [Compound I-21] | 289 | 150 | 104 | 54 | 44 | –

Further lines, results first:

Row | Maximum enhancing activity: Concentration by mole [µM] | Maximum enhancing activity: Concentration by weight [µg/mL] | 10-Fold enhancing activity: Concentration by mole [μM] | 10-Fold enhancing activity: Concentration by weight [μg/ml] | Maximum enhancing activity: Multiplication factor | plasminogen activation enhancing activity compared to orniplabin | SMILES
14 | 402 | 215 | 230 | 123 | 29 | – | CC(C)=CCC/C(C)=C/CC[C@]1(C)Oc2c(c(O)cc3c2CN([C@H](C(=O)O)c2cccc(O)c2)C3=O)C[C@@H]1O (racemic) [Compound I-25]
15 | 299 | 160 | 211 | 113 | 18 | – | CC(C)=CCC/C(C)=C/CC[C@]1(C)Oc2c(c(O)cc3c2CN([C@H](C(=O)O)c2ccc(O)cc2)C3=O)C[C@@H]1O [Compound I-22]
16 | 402 | 215 | 331 | 177 | 22 | – | CC(C)=CCC/C(C)=C/CC[C@]1(C)Oc2c(c(O)cc3c2CN([C@@H](C(=O)O)c2ccc(O)cc2)C3=O)C[C@@H]1O [Compound I-23]
17 | 200 | 110 | 77 | 42 | 76 | equivalent or higher | CC(C)=CCC/C(C)=C/CC[C@]1(C)Oc2c(c(O)cc3c2CN([C@@H](Cc2ccc(O)cc2)C(=O)O)C3=O)C[C@H]1O [Compound I-26]
18 | 90 | 78 | 65 | 56 | 100 | – | CC(C)=CCC/C(C)=C/CC[C@]1(C)Oc2c(c(O)cc3c2CN(CCC[C@@H](C(=O)O)N2Cc4c(cc(O)c5c4O[C@@](C)(CC/C=C(\C)CCC=C(C)C)[C@@H](O)C5)C2=O)C3=O)C[C@@H]1O [Orniplabin, reference compound]
